Data as given in ChEMBL document CHEMBL1201862, “PubChem BioAssay data set” (2004).
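Following 48 hours of exposure in 96-well plates, responses at five concentrations were used to interpolate endpoints linearly. GI50 marks 50% less growth.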 Active and inactive are the calls of the source. Rule as the data show it: active = GI50 up to about 1.1 µM and inactive = higher.

Tests used:
Experiment in all cases: NCI anticancer screen, dose series, 48 h
786-0 = tested on: 786-0
COLO 205 = tested on: COLO 205
EKVX = tested on: EKVX
HCC 2998 = tested on: HCC 2998
HCT-116 = tested on: HCT-116
HOP-62 = tested on: HOP-62
IGROV-1 = tested on: IGROV-1
K562 = tested on: K562
KM12 = tested on: KM12
LOX IMVI = tested on: LOX IMVI
M14 = tested on: M14
OVCAR-3 = tested on: OVCAR-3
OVCAR-4 = tested on: OVCAR-4
RXF 393 = tested on: RXF 393
SK-MEL-28 = tested on: SK-MEL-28
TK-10 = tested on: TK-10

Compound | GI50 (786-0) | GI50 (COLO 205) | GI50 (EKVX) | GI50 (HCC 2998) | GI50 (HCT-116) | GI50 (HOP-62) | GI50 (IGROV-1) | GI50 (K562) | GI50 (KM12) | GI50 (LOX IMVI) | GI50 (M14) | GI50 (OVCAR-3) | GI50 (OVCAR-4) | GI50 (RXF 393) | GI50 (SK-MEL-28) | GI50 (TK-10)
CCCCCC(O)(CCCCC)CCCCCCCCC1=C(O)C(=O)c2ccc(=O)[nH]c2C1=O | 8.63 µM (inactive) | 17.9 µM (inactive) | 13.4 µM (inactive) | 14.5 µM (inactive) | 4.34 µM (inactive) | 10.4 µM (inactive) | 5.53 µM (inactive) | 5.07 µM (inactive) | 11 µM (inactive) | 11.7 µM (inactive) | 10 µM (inactive) | 4.23 µM (inactive) | 1.87 µM (inactive) | 9.38 µM (inactive) | 8.32 µM (inactive) | –
Cc1cc(NCCCCCCCCNc2cc(C)nc3cc(N(C)C)ccc23)c2ccc(N(C)C)cc2n1 | 7.16 µM (inactive) | 1.9 µM (inactive) | 7.1 µM (inactive) | 4.3 µM (inactive) | 3.4 µM (inactive) | 12.2 µM (inactive) | – | 0.881 µM (active) | 2.82 µM (inactive) | 2.37 µM (inactive) | 3.73 µM (inactive) | 3.86 µM (inactive) | 4.88 µM (inactive) | 12.9 µM (inactive) | 0.933 µM (active) | > 10 µM (inactive)
O=C(Cc1nc2c3c(ccc2nc1O)C(=O)c1ccccc1C3=O)C(=O)Nc1ccccc1[N+](=O)[O-] | 15.3 µM (inactive) | 15.2 µM (inactive) | 17.5 µM (inactive) | 19.1 µM (inactive) | 26.6 µM (inactive) | 18.3 µM (inactive) | 29.6 µM (inactive) | 12.6 µM (inactive) | 18.7 µM (inactive) | 16.5 µM (inactive) | 16.3 µM (inactive) | 11.5 µM (inactive) | 13.2 µM (inactive) | – | 16.1 µM (inactive) | 24.2 µM (inactive)
NNC(=O)C(=O)N/N=C1\CCC(=O)CC1C(=O)CCC(=O)Nc1ccc(Cl)cc1 (centres undefined) | > 100 µM (inactive) | > 100 µM (inactive) | > 100 µM (inactive) | > 100 µM (inactive) | > 100 µM (inactive) | – | > 100 µM (inactive) | > 100 µM (inactive) | 64 µM (inactive) | > 100 µM (inactive) | > 100 µM (inactive) | 95.3 µM (inactive) | > 100 µM (inactive) | 72.4 µM (inactive) | > 100 µM (inactive) | > 100 µM (inactive)
Clc1cccc2c1OCC1C(c3ccccc3)=NN(c3ccccc3)C21 (centres undefined) | 55.6 µM (inactive) | > 100 µM (inactive) | 40.1 µM (inactive) | > 100 µM (inactive) | 12.9 µM (inactive) | > 100 µM (inactive) | > 100 µM (inactive) | 28.9 µM (inactive) | 87.1 µM (inactive) | 39.7 µM (inactive) | – | > 100 µM (inactive) | – | > 100 µM (inactive) | > 100 µM (inactive) | > 100 µM (inactive)
FC(F)(F)c1cccc(C2SCc3nc4ccccc4n32)c1 (centres undefined) | 61.5 µM (inactive) | > 100 µM (inactive) | 73.3 µM (inactive) | > 100 µM (inactive) | 38.9 µM (inactive) | – | 33.7 µM (inactive) | 8.61 µM (inactive) | 68.4 µM (inactive) | – | – | 56 µM (inactive) | – | 33.1 µM (inactive) | 65.9 µM (inactive) | 72.3 µM (inactive)
O=C(c1ccncc1)n1nc(-c2ccccc2)c(/N=N/c2ccccc2[N+](=O)[O-])c1-c1ccccc1 | 76 µM (inactive) | > 100 µM (inactive) | 9.04 µM (inactive) | 34.7 µM (inactive) | 44.3 µM (inactive) | 38.3 µM (inactive) | 73.8 µM (inactive) | 36.3 µM (inactive) | 19.3 µM (inactive) | – | > 100 µM (inactive) | 45 µM (inactive) | > 100 µM (inactive) | – | > 100 µM (inactive) | 67.9 µM (inactive)
C/C(CC(=O)Nc1cc(C)ccc1C)=N\NC(=O)c1ccncc1 | > 100 µM (inactive) | > 100 µM (inactive) | > 100 µM (inactive) | > 100 µM (inactive) | > 100 µM (inactive) | > 100 µM (inactive) | > 100 µM (inactive) | > 100 µM (inactive) | > 100 µM (inactive) | > 100 µM (inactive) | > 100 µM (inactive) | > 100 µM (inactive) | – | > 100 µM (inactive) | > 100 µM (inactive) | > 100 µM (inactive)
S=C(Nc1ccccc1)Nc1[nH]c(=S)sc1-c1nc2ccccc2[nH]1 | 34.2 µM (inactive) | > 100 µM (inactive) | 75.9 µM (inactive) | > 100 µM (inactive) | – | 23.1 µM (inactive) | 94.2 µM (inactive) | > 100 µM (inactive) | > 100 µM (inactive) | 61.4 µM (inactive) | 49.8 µM (inactive) | 30.6 µM (inactive) | 15.2 µM (inactive) | > 100 µM (inactive) | 73.5 µM (inactive) | 40.1 µM (inactive)
COc1cc(C(O)C(=O)c2cnc3cc([N+](=O)[O-])ccc3n2)ccc1O (centres undefined) | > 100 µM (inactive) | > 100 µM (inactive) | 72.3 µM (inactive) | > 100 µM (inactive) | > 100 µM (inactive) | 85.5 µM (inactive) | > 100 µM (inactive) | > 100 µM (inactive) | > 100 µM (inactive) | 77.8 µM (inactive) | > 100 µM (inactive) | – | > 100 µM (inactive) | 64.1 µM (inactive) | – | > 100 µM (inactive)
COC1=C(C)C(=O)C2C(C1=O)C(c1ccc(OC)c(OC)c1)[C@H]2C (some centres undefined) | > 100 µM (inactive) | > 100 µM (inactive) | > 100 µM (inactive) | > 100 µM (inactive) | – | > 100 µM (inactive) | > 100 µM (inactive) | > 100 µM (inactive) | > 100 µM (inactive) | > 100 µM (inactive) | > 100 µM (inactive) | > 100 µM (inactive) | > 100 µM (inactive) | > 100 µM (inactive) | > 100 µM (inactive) | > 100 µM (inactive)
C=C1C2CC(OC(C)=O)C3(C)C(c4ccoc4)OC(=O)[C@@H](O)[C@]13OC1C[C@H](OC(C)=O)C(C)(C)[C@H](C(O)C(=O)OC)[C@]12C (some centres undefined) | > 100 µM (inactive) | > 100 µM (inactive) | > 100 µM (inactive) | > 100 µM (inactive) | > 100 µM (inactive) | – | > 100 µM (inactive) | > 100 µM (inactive) | > 100 µM (inactive) | > 100 µM (inactive) | > 100 µM (inactive) | > 100 µM (inactive) | > 100 µM (inactive) | – | > 100 µM (inactive) | > 100 µM (inactive)
COc1cc(/C=C\c2ccc(Cl)cc2)cc(OC)c1OC | 0.113 µM (active) | 0.443 µM (active) | 0.439 µM (active) | 1.73 µM (inactive) | 0.0652 µM (active) | 0.302 µM (active) | 1.08 µM (active) | 0.033 µM (active) | 0.173 µM (active) | 0.175 µM (active) | 0.0647 µM (active) | 0.102 µM (active) | 5.74 µM (inactive) | 0.2 µM (active) | 0.454 µM (active) | 38.9 µM (inactive)
